Experimental data from the supplement of paper PMC10307832.

Tests used:
Experiment in all cases: relative viability (nuclei count vs DMSO), 5 days (fraction); higher = more cells survive
Fedratinib + Linsitinib = compound: Cc1cnc(Nc2ccc(OCCN3CCCC3)cc2)nc1Nc1cccc(S(=O)(=O)NC(C)(C)C)c1 [Fedratinib] + C[C@]1(O)C[C@@H](c2nc(-c3ccc4ccc(-c5ccccc5)nc4c3)c3c(N)nccn32)C1 [Linsitinib] (partner 1 µM)
How it was run: (§1)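 One day after seeding in 1536-well plates, lung cancer cell lines were dosed by pin tool. Dosing was either single-drug or a fixed anchor-drug dose plus five library-drug doses (not always all listed) in √10 steps. After 5 days, nuclei were stained in one fix-and-stain step and counted on 4× images, and relative viability is the nuclei count of treated wells over that of vehicle wells, given as the median of duplicate plates.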

GW-2580 + Crizotinib = compound: COC1=CC=C(C=C1)COC2=C(C=C(C=C2)CC3=CN=C(N=C3N)N)OC [GW-2580] + C[C@@H](Oc1cc(-c2cnn(C3CCNCC3)c2)cnc1N)c1c(Cl)ccc(F)c1Cl [Crizotinib] (partner 1 µM)
How it was run: as §1

Fedratinib + Trametinib = compound: Cc1cnc(Nc2ccc(OCCN3CCCC3)cc2)nc1Nc1cccc(S(=O)(=O)NC(C)(C)C)c1 [Fedratinib] + CC(=O)Nc1cccc(-n2c(=O)n(C3CC3)c(=O)c3c(Nc4ccc(I)cc4F)n(C)c(=O)c(C)c32)c1 [Trametinib] (partner 0.02 µM)
How it was run: as §1

GW-2580 + Tozasertib = compound: COC1=CC=C(C=C1)COC2=C(C=C(C=C2)CC3=CN=C(N=C3N)N)OC [GW-2580] + Cc1cc(Nc2cc(N3CCN(C)CC3)nc(Sc3ccc(NC(=O)C4CC4)cc3)n2)n[nH]1 [Tozasertib] (partner 0.1 µM)
How it was run: as §1

Fedratinib + Foretinib = compound: Cc1cnc(Nc2ccc(OCCN3CCCC3)cc2)nc1Nc1cccc(S(=O)(=O)NC(C)(C)C)c1 [Fedratinib] + COc1cc2c(Oc3ccc(NC(=O)C4(C(=O)Nc5ccc(F)cc5)CC4)cc3F)ccnc2cc1OCCCN1CCOCC1 [Foretinib] (partner 0.25 µM)
How it was run: as §1

Fedratinib + Bortezomib = compound: Cc1cnc(Nc2ccc(OCCN3CCCC3)cc2)nc1Nc1cccc(S(=O)(=O)NC(C)(C)C)c1 [Fedratinib] + CC(C)C[C@H](NC(=O)[C@H](Cc1ccccc1)NC(=O)c1cnccn1)B(O)O [Bortezomib] (partner 0.002 µM)
How it was run: as §1

Cell Line | relative viability (Fedratinib + Linsitinib; first compound 0.1 µM) | relative viability (Fedratinib + Linsitinib; first compound 0.3162 µM) | relative viability (Fedratinib + Linsitinib; first compound 1 µM) | relative viability (GW-2580 + Crizotinib; first compound 0.08 µM) | relative viability (GW-2580 + Crizotinib; first compound 0.8 µM) | relative viability (GW-2580 + Crizotinib; first compound 2.53 µM) | relative viability (GW-2580 + Crizotinib; first compound 8 µM) | relative viability (Fedratinib + Trametinib; first compound 0.1 µM) | relative viability (Fedratinib + Trametinib; first compound 0.3162 µM) | relative viability (Fedratinib + Trametinib; first compound 1 µM) | relative viability (GW-2580 + Tozasertib; first compound 0.08 µM) | relative viability (GW-2580 + Tozasertib; first compound 0.8 µM) | relative viability (GW-2580 + Tozasertib; first compound 2.53 µM) | relative viability (GW-2580 + Tozasertib; first compound 8 µM) | relative viability (Fedratinib + Foretinib; first compound 0.1 µM) | relative viability (Fedratinib + Foretinib; first compound 0.3162 µM) | relative viability (Fedratinib + Foretinib; first compound 1 µM) | relative viability (Fedratinib + Bortezomib; first compound 0.1 µM) | relative viability (Fedratinib + Bortezomib; first compound 0.3162 µM) | relative viability (Fedratinib + Bortezomib; first compound 1 µM)
HCC-827 | 0.964 | 1.01 | 0.948 | 0.874 | 0.933 | 0.863 | 0.868 | 0.515 | 0.567 | 0.503 | 0.557 | 0.469 | 0.47 | 0.371 | 1.03 | 1.07 | 0.96 | 1.09 | 1.03 | 1.03
HOP-62 | 0.837 | 0.975 | 0.884 | 0.986 | 1.12 | 0.926 | 0.98 | 0.355 | 0.392 | 0.393 | 0.404 | 0.374 | 0.333 | 0.326 | 1.1 | 0.982 | 0.959 | 1.01 | 0.92 | 0.785
LC-2-ad | 0.838 | 0.85 | 0.71 | 0.484 | 0.527 | 0.462 | 0.459 | 0.898 | 0.904 | 0.933 | 0.501 | 0.412 | 0.405 | 0.475 | 1.02 | 1.01 | 0.784 | 1.04 | 0.96 | 0.0819
LCLC-97TM1 | 0.151 | 0.192 | 0.203 | 0.554 | – | 0.303 | 0.284 | 0.234 | 0.202 | 0.18 | 0.289 | 0.161 | 0.154 | 0.261 | 1.03 | 0.913 | 0.935 | 0.636 | 0.527 | 0.228
LCLC-103H | 1.19 | 1.1 | 0.966 | 1.02 | 1.1 | 1.08 | 1.02 | 0.699 | 0.683 | 0.659 | 0.555 | 0.432 | 0.484 | 0.396 | 0.644 | 0.797 | 0.608 | 0.801 | 0.997 | 0.897
LOU-NH91 | 0.844 | 1.08 | 0.831 | 0.731 | 0.75 | 0.753 | 0.728 | 0.753 | 0.781 | 0.752 | 0.687 | 0.657 | 0.625 | 0.589 | 0.917 | 0.956 | 0.875 | 0.449 | 0.526 | 0.468
LU99A | 0.521 | 0.513 | 0.48 | 0.662 | 0.633 | 0.524 | 0.535 | 0.577 | 0.593 | 0.477 | 0.27 | 0.294 | 0.23 | 0.235 | 0.717 | 0.858 | 0.644 | 1.12 | 1.14 | 0.466
LXF-289 | 0.989 | 0.943 | 0.963 | 0.846 | 0.818 | 0.775 | 0.705 | 0.676 | 0.61 | 0.621 | 0.191 | 0.188 | 0.161 | 0.157 | 0.963 | 0.958 | 0.981 | 1.02 | 0.978 | 0.78
NCI-H23 | 0.583 | 0.618 | 0.431 | 0.431 | 0.508 | 0.506 | 0.362 | 0.373 | 0.395 | 0.306 | 0.418 | 0.401 | 0.392 | 0.31 | 0.945 | 0.767 | 0.822 | 0.946 | 0.943 | 0.173
NCI-H322M | 0.95 | 0.939 | 0.799 | 0.982 | 0.969 | 0.994 | 0.862 | 0.439 | 0.481 | 0.508 | 0.491 | 0.553 | 0.476 | 0.593 | 0.946 | 0.95 | 0.596 | 1.19 | 1.16 | 1.06
NCI-H441 | 0.518 | 0.442 | 0.343 | 0.873 | 0.736 | 0.572 | 0.795 | 0.348 | 0.345 | 0.301 | 0.698 | 0.704 | 0.584 | 0.655 | 1.12 | 0.907 | 0.868 | 0.538 | 0.484 | 0.236
NCI-H460 | 0.806 | 0.773 | 0.52 | 1.07 | 1.14 | 0.819 | 0.839 | 0.163 | 0.156 | 0.061 | 0.349 | 0.394 | 0.422 | 0.33 | 0.793 | 1.05 | 0.997 | 1.84 | 1.13 | 1.04
NCI-H520 | 1.09 | 1.25 | 1.02 | 0.791 | 0.956 | 0.763 | 0.621 | 0.476 | 0.801 | 0.63 | 0.421 | 0.459 | 0.443 | 0.46 | 0.797 | 0.736 | 0.726 | 0.524 | 0.711 | 0.173
NCI-H596 | 1.01 | 1.08 | 1.08 | 0.966 | 0.985 | 0.912 | 1.15 | 0.739 | 0.804 | 0.755 | 0.956 | 1.02 | 0.891 | 0.919 | 0.881 | 0.78 | 0.762 | 1.01 | 1.21 | 0.919
NCI-H647 | 1.14 | 1.16 | 1.11 | 1.28 | 1.47 | 1.05 | 0.957 | 0.521 | 0.493 | 0.366 | 0.358 | 0.218 | 0.418 | 0.189 | 1.16 | 1.23 | 1.16 | 0.976 | 1.16 | 0.395
